Source: US7288273B1, “Gallotannins and ellagitannins as regulators of cytokine release” (The Penn State Research Foundation, priority 2000, dated 2007)

What was measured:
[1] = system: LPS induced TNF-α secretion from h-PBMC's; assay: Inhibition of LPS induced TNF-α secretion from h-PBMC's; type: cell-based, human; conditions: for TNF-α secreted in the presence of LPS and 17c-20c: compound 10 μg/mL added after 45 minutes, h-PBMC's 3rd subject; for TNF-α secreted in the presence of LPS and 17c-20c / TNF-α secreted in the presence of LPS and 19c / 20c / TNF-α secreted in the presence of LPS and 18c-20c: ± SD; for TNF-α secreted in the presence of LPS and 19c / 20c: 8 h incubation; for TNF-α secreted in the presence of LPS and 19c / 20c / TNF-α secreted in the presence of LPS and 18c-20c: 4th subject
Summary of the method: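 Human PBMCs stimulated with LPS (5 or 10 μg/mL), compounds added at varying concentrations 45 min after LPS or simultaneously; supernatants harvested after 8 h. Secreted TNF-α normalized as percent of maximum secretion with LPS alone.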

[2] = system: IL-1β secretion from h-PBMC's; assay: IL-1β release from h-PBMC's, ELISA; type: cell-based, human; conditions: for IL-1β secreted in the presence of 17c-20c: h-PBMC's 2nd subject, ± SD
Summary of the method: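 Human peripheral blood mononuclear cells from healthy donors were isolated, checked for viability by Trypan Blue exclusion, and set at 1×10^6 cells/well in 0.5 mL RPMI. The tannin was added from an HBSS stock, and plates were incubated at 37° C. in a humidified 5% CO2 atmosphere. Supernatants were taken after centrifugation at 400 g, and secreted IL-1β was quantified by a commercial ELISA. LPS was the positive control and untreated cells the negative control.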

For `O=C(CCCCCC(=O)OC1O[C@H](COC(=O)c2cc(O)c(O)c(O)c2)[C@@H](OC(=O)c2cc(O)c(O)c(O)c2)[C@H](OC(=O)c2cc(O)c(O)c(O)c2)[C@H]1OC(=O)c1cc(O)c(O)c(O)c1)OC1O[C@H](COC(=O)c2cc(O)c(O)c(O)c2)[C@@H](OC(=O)c2cc(O)c(O)c(O)c2)[C@H](OC(=O)c2cc(O)c(O)c(O)c2)[C@H]1OC(=O)c1cc(O)c(O)c(O)c1` (mixture of isomers) [Compound 20c, 1,1′-O-2,2′,3,3′,4,4′,6,6′-Tetrakis(3,4,5-trihyroxybenzoyl)-β,β′-D,D′-glucopyranosylpimelate], the “TNF-α secreted in the presence of LPS and 17c-20c” value ([1]; LPS 5 μg/mL, time 1 h) was 243.6 ± 52.8 pg/mL, the “TNF-α secreted in the presence of LPS and 17c-20c” value ([1]; LPS 5 μg/mL, time 4 h) was 2370.1 ± 95.7 pg/mL and the “TNF-α secreted in the presence of LPS and 17c-20c” value ([1]; LPS 5 μg/mL, time 8 h) was 2889.8 ± 383.2 pg/mL. For the same compound, the “TNF-α secreted in the presence of LPS and 17c-20c” value ([1]; LPS 5 μg/mL, time 12 h) was 2313.2 ± 339.1 pg/mL, the “TNF-α secreted in the presence of LPS and 17c-20c” value ([1]; LPS 5 μg/mL, time 16 h) was 2628.4 ± 571.0 pg/mL and the “TNF-α secreted in the presence of LPS and 17c-20c” value ([1]; LPS 5 μg/mL, time 24 h) was 2356.4 ± 400.3 pg/mL. The “maximum inhibition of LPS induced TNF-α secretion” value ([1]; LPS 5 μg/mL, 3rd subject) was 45%, the “maximum inhibition of LPS induced TNF-α secretion” value ([1]; LPS 10 μg/mL, substrate added after 45 minutes, 8 hours) was 45% and the “TNF-α secreted in the presence of LPS and 19c / 20c” value ([1]; compound 0.6 μM added 45 minutes after LPS 1 μg/mL) was 109.1 ± 14.9 % max. response. The “TNF-α secreted in the presence of LPS and 18c-20c” value ([1]; compound 0.6 μM added 45 minutes after LPS 10 μg/mL, 8 hours) was 89.8 ± 9.2 % max. response, the “TNF-α secreted in the presence of LPS and 19c / 20c” value ([1]; compound 1.8 μM added 45 minutes after LPS 1 μg/mL) was 110.6 ± 1.3 % max. response and the “TNF-α secreted in the presence of LPS and 18c-20c” value ([1]; compound 2.9 μM added 45 minutes after LPS 10 μg/mL, 8 hours) was 65.6 ± 8.3 % max. response. For the same compound, the “TNF-α secreted in the presence of LPS and 19c / 20c” value ([1]; compound 3.5 μM added 45 minutes after LPS 1 μg/mL) was 62.4 ± 10.2 % max. response, the “TNF-α secreted in the presence of LPS and 19c / 20c” value ([1]; compound 5.9 μM added 45 minutes after LPS 1 μg/mL) was 69.5 ± 27.9 % max. response and the “TNF-α secreted in the presence of LPS and 18c-20c” value ([1]; compound 5.9 μM added 45 minutes after LPS 10 μg/mL, 8 hours) was 67.1 ± 8.9 % max. response. The “TNF-α secreted in the presence of LPS and 18c-20c” value ([1]; compound 11.7 μM added 45 minutes after LPS 10 μg/mL, 8 hours) was 63.3 ± 4.7 % max. response, the “TNF-α secreted in the presence of LPS and 19c / 20c” value ([1]; compound 11.8 μM added 45 minutes after LPS 1 μg/mL) was 98.4 ± 12.1 % max. response and the “TNF-α secreted in the presence of LPS and 18c-20c” value ([1]; compound 23.5 μM added 45 minutes after LPS 10 μg/mL, 8 hours) was 63.9 ± 13.9 % max. response. For the same compound, the “IL-1β secreted in the presence of 17c-20c” value (“IL-1β secreted” for short) ([2]; compound 0.6 μM) was 0 pg/mL, the “IL-1β secreted” value ([2]; compound 2.9 μM) was 0 pg/mL and the “IL-1β secreted” value ([2]; compound 5.9 μM) was 0 pg/mL. For the same compound, the “IL-1β secreted” value ([2]; compound 11.8 μM) was 184.1 pg/mL, the “IL-1β secreted” value ([2]; compound 17.6 μM) was 230.0 pg/mL and the “IL-1β secreted” value ([2]; compound 23.5 μM) was 0 pg/mL. For the same compound, the “IL-1β secreted” value ([2]; compound 29.4 μM) was 204.2 pg/mL and the “IL-1β secretion from h-PBMC's, in words” value ([2]; h-PBMC's) was “lowest amounts of IL-1β production”.
